Data published in US20240158348A1, “HERBICIDAL CYCLIC AMIDES N-SUBSTITUTED WITH A HALOALKYLSULFONYLANILIDE GROUP” (FMC Corporation, priority 2021, published 2024).

Legend:
Type in all cases: in vivo
corn (Zea mays) [1] = assay: Test C preemergence, corn; conditions: 0 is no effect, 100 is complete control
From the text: (§1) Seeds of plant species selected from blackgrass (Alopecurus myosuroides), corn (Zea mays), foxtail, giant (giant foxtail, Setaria faberi), goosegrass (Eleusine indica), kochia (Bassia scoparia), oat, wild (wild oat, Avena fatua), pigweed, palmer (palmer amaranth, Amaranthus palmeri), ragweed (common ragweed, Ambrosia artemisiifolia), ryegrass, Italian (Italian ryegrass, Lolium multiflorum), soybean (Glycine max) and wheat (Triticum aestivum) were planted into a blend of loam soil and sand and treated preemergence with a directed soil spray using test chemicals formulated in a non-phytotoxic solvent mixture which included a surfactant.
(§2) At the same time, plants selected from these crop and weed species and also galium (catchweed bedstraw, Galium aparine) and horseweed (Erigeron canadensis) were planted in pots containing the same blend of loam soil and sand and treated with postemergence applications of test chemicals formulated in the same manner. Plants ranged in height from 2 to 10 cm and were in the one- to two-leaf stage for the postemergence treatment. Treated plants and untreated controls were maintained in a greenhouse for 10 or 12 days, after which time all treated plants were compared to untreated controls and visually evaluated for injury. Plant response ratings, summarized in Table A, are based on a 0 to 100 scale where 0 is no effect and 100 is complete control. A dash (-) response means no test result.

[2] = test system: foxtail, giant (giant foxtail, Setaria faberi); assay: Test C preemergence, giant foxtail; conditions: 0 is no effect, 100 is complete control
From the text: as §1, §2

[3] = test system: goosegrass (Eleusine indica); assay: Test C preemergence, goosegrass; conditions: 0 is no effect, 100 is complete control
From the text: as §1, §2

kochia (Bassia scoparia) [4] = assay: Test C preemergence, kochia; conditions: 0 is no effect, 100 is complete control
From the text: as §1, §2

[5] = test system: oat, wild (wild oat, Avena fatua); assay: Test C preemergence, wild oat; conditions: 0 is no effect, 100 is complete control
From the text: as §1, §2

[6] = test system: pigweed, palmer (palmer amaranth, Amaranthus palmeri); assay: Test C preemergence, palmer amaranth; conditions: 0 is no effect, 100 is complete control
From the text: as §1, §2

[7] = test system: ragweed (common ragweed, Ambrosia artemisiifolia); assay: Test C preemergence, ragweed; conditions: 0 is no effect, 100 is complete control
From the text: as §1, §2

[8] = test system: ryegrass, Italian (Italian ryegrass, Lolium multiflorum); assay: Test C preemergence, Italian ryegrass; conditions: 0 is no effect, 100 is complete control
From the text: as §1, §2

soybean (Glycine max) [9] = assay: Test C preemergence, soybean; conditions: 0 is no effect, 100 is complete control
From the text: as §1, §2

[10] = test system: wheat (Triticum aestivum); assay: Test C preemergence, wheat; conditions: 0 is no effect, 100 is complete control
From the text: as §1, §2

[11] = test system: blackgrass (Alopecurus myosuroides); assay: Test C postemergence, blackgrass; conditions: visual injury, 0 to 100 scale (0 no effect, 100 complete control)
From the text: as §1, §2

corn (Zea mays) [12] = assay: Test C postemergence, corn; conditions: visual injury, 0 to 100 scale (0 no effect, 100 complete control)
From the text: as §1, §2

[13] = test system: foxtail, giant (giant foxtail, Setaria faberi); assay: Test C postemergence, giant foxtail; conditions: visual injury, 0 to 100 scale (0 no effect, 100 complete control)
From the text: as §1, §2

[14] = test system: goosegrass (Eleusine indica); assay: Test C postemergence, goosegrass; conditions: visual injury, 0 to 100 scale (0 no effect, 100 complete control)
From the text: as §1, §2

kochia (Bassia scoparia) [15] = assay: Test C postemergence, kochia; conditions: visual injury, 0 to 100 scale (0 no effect, 100 complete control)
From the text: as §1, §2

[16] = test system: oat, wild (wild oat, Avena fatua); assay: Test C postemergence, wild oat; conditions: visual injury, 0 to 100 scale (0 no effect, 100 complete control)
From the text: as §1, §2

[17] = test system: pigweed, palmer (palmer amaranth, Amaranthus palmeri); assay: Test C postemergence, palmer amaranth; conditions: visual injury, 0 to 100 scale (0 no effect, 100 complete control)
From the text: as §1, §2

[18] = test system: ragweed (common ragweed, Ambrosia artemisiifolia); assay: Test C postemergence, ragweed; conditions: visual injury, 0 to 100 scale (0 no effect, 100 complete control)
From the text: as §1, §2

[19] = test system: ryegrass, Italian (Italian ryegrass, Lolium multiflorum); assay: Test C postemergence, Italian ryegrass; conditions: visual injury, 0 to 100 scale (0 no effect, 100 complete control)
From the text: as §1, §2

soybean (Glycine max) [20] = assay: Test C postemergence, soybean; conditions: visual injury, 0 to 100 scale (0 no effect, 100 complete control)
From the text: as §1, §2

[21] = test system: wheat (Triticum aestivum); assay: Test C postemergence, wheat; conditions: visual injury, 0 to 100 scale (0 no effect, 100 complete control)
From the text: as §1, §2

[22] = test system: horseweed (Erigeron canadensis); assay: Test C postemergence, horseweed; conditions: visual injury, 0 to 100 scale (0 no effect, 100 complete control)
From the text: as §1, §2

[23] = test system: barnyardgrass (Echinochloa crusgalli); assay: Test D flooded paddy test, barnyardgrass; parameters: key: 0 = no effect, 100 = complete control; conditions: 250 g ai/ha, Flood; applied to paddy water at 2-leaf stage; visual rating after 13 days; scale 0 (no effect) to 100 (complete control)
Protocol: (§3) Plant species in the flooded paddy test selected from barnyardgrass (Echinochloa crusgalli), ducksalad (Heteranthera limosa), rice (Oryza sativa), and sedge, umbrella (small-flower umbrella sedge, Cyperus difformis) were grown to the 2-leaf stage for testing. At time of treatment, test pots were flooded to 3 cm above the soil surface, treated by application of test compounds directly to the paddy water, and then maintained at that water depth for the duration of the test. Treated plants and controls were maintained in a greenhouse for 13 days, after which time all species were compared to controls and visually evaluated. Plant response ratings, summarized in Table B, are based on a scale of 0 to 100 where 0 is no effect and 100 is complete control. A dash (-) response means no test result.

[24] = test system: ducksalad (Heteranthera limosa); assay: Test D flooded paddy test, ducksalad; parameters: key: 0 = no effect, 100 = complete control; conditions: 250 g ai/ha, Flood; applied to paddy water at 2-leaf stage; visual rating after 13 days; scale 0 (no effect) to 100 (complete control)
Protocol: as §3

rice (Oryza sativa) = assay: Test D flooded paddy test, rice; parameters: key: 0 = no effect, 100 = complete control; conditions: 250 g ai/ha, Flood; applied to paddy water at 2-leaf stage; visual rating after 13 days; scale 0 (no effect) to 100 (complete control)
Protocol: as §3

[25] = test system: sedge, umbrella (small-flower umbrella sedge, Cyperus difformis); assay: Test D flooded paddy test, umbrella sedge; parameters: key: 0 = no effect, 100 = complete control; conditions: 250 g ai/ha, Flood; applied to paddy water at 2-leaf stage; visual rating after 13 days; scale 0 (no effect) to 100 (complete control)
Protocol: as §3

Cc1cc(C)c(N(COC(=O)C(C)(C)C)S(=O)(=O)C(F)(F)F)cc1N1CCC(OCC2CCC2)C1=O (stereo not drawn) [Compound 56]
Plant response rating (0 to 100 scale), Corn (corn (Zea mays) [1]; 31 g ai/ha Preemergence): 0
Plant response rating (0 to 100 scale), Corn (corn (Zea mays) [1]; 125 g ai/ha Preemergence): 10
Plant response rating (0 to 100 scale), Foxtail, Giant ([2]; 31 g ai/ha Preemergence): 0
Plant response rating (0 to 100 scale), Foxtail, Giant ([2]; 125 g ai/ha Preemergence): 80
Plant response rating (0 to 100 scale), Goosegrass ([3]; 31 g ai/ha Preemergence): 10
Plant response rating (0 to 100 scale), Goosegrass ([3]; 125 g ai/ha Preemergence): 90
Plant response rating (0 to 100 scale), Kochia (kochia (Bassia scoparia) [4]; 31 g ai/ha Preemergence): 0
Plant response rating (0 to 100 scale), Kochia (kochia (Bassia scoparia) [4]; 125 g ai/ha Preemergence): 70
Plant response rating (0 to 100 scale), Oat, Wild ([5]; 31 g ai/ha Preemergence): 0
Plant response rating (0 to 100 scale), Oat, Wild ([5]; 125 g ai/ha Preemergence): 0
Plant response rating (0 to 100 scale), Pigweed, Palmer ([6]; 31 g ai/ha Preemergence): 10
Plant response rating (0 to 100 scale), Pigweed, Palmer ([6]; 125 g ai/ha Preemergence): 90
Plant response rating (0 to 100 scale), Ragweed ([7]; 31 g ai/ha Preemergence): 0
Plant response rating (0 to 100 scale), Ragweed ([7]; 125 g ai/ha Preemergence): 30
Plant response rating (0 to 100 scale), Ryegrass, Italian ([8]; 31 g ai/ha Preemergence): 30
Plant response rating (0 to 100 scale), Ryegrass, Italian ([8]; 125 g ai/ha Preemergence): 80
Plant response rating (0 to 100 scale), Soybean (soybean (Glycine max) [9]; 31 g ai/ha Preemergence): 0
Plant response rating (0 to 100 scale), Soybean (soybean (Glycine max) [9]; 125 g ai/ha Preemergence): 30
Plant response rating (0 to 100 scale), Wheat ([10]; 31 g ai/ha Preemergence): 0
Plant response rating (0 to 100 scale), Wheat ([10]; 125 g ai/ha Preemergence): 0
Blackgrass plant response rating ([11]; 31 g ai/ha Postemergence): 0
Blackgrass plant response rating ([11]; 125 g ai/ha Postemergence): 20
Corn plant response rating (corn (Zea mays) [12]; 31 g ai/ha Postemergence): 0
Corn plant response rating (corn (Zea mays) [12]; 125 g ai/ha Postemergence): 30
Foxtail, Giant plant response rating ([13]; 31 g ai/ha Postemergence): 10
Foxtail, Giant plant response rating ([13]; 125 g ai/ha Postemergence): 40
Goosegrass plant response rating ([14]; 31 g ai/ha Postemergence): 0
Goosegrass plant response rating ([14]; 125 g ai/ha Postemergence): 60
Kochia plant response rating (kochia (Bassia scoparia) [15]; 31 g ai/ha Postemergence): 0
Kochia plant response rating (kochia (Bassia scoparia) [15]; 125 g ai/ha Postemergence): 30
Oat, Wild plant response rating ([16]; 31 g ai/ha Postemergence): 10
Oat, Wild plant response rating ([16]; 125 g ai/ha Postemergence): 10
Pigweed, Palmer plant response rating ([17]; 31 g ai/ha Postemergence): 0
Pigweed, Palmer plant response rating ([17]; 125 g ai/ha Postemergence): 40
Ragweed plant response rating ([18]; 31 g ai/ha Postemergence): 20
Ragweed plant response rating ([18]; 125 g ai/ha Postemergence): 60
Ryegrass, Italian plant response rating ([19]; 31 g ai/ha Postemergence): 0
Ryegrass, Italian plant response rating ([19]; 125 g ai/ha Postemergence): 60
Soybean plant response rating (soybean (Glycine max) [20]; 31 g ai/ha Postemergence): 40
Soybean plant response rating (soybean (Glycine max) [20]; 125 g ai/ha Postemergence): 50
Wheat plant response rating ([21]; 31 g ai/ha Postemergence): 0
Wheat plant response rating ([21]; 125 g ai/ha Postemergence): 70
Horseweed plant response rating ([22]; 31 g ai/ha Postemergence): 20
Horseweed plant response rating ([22]; 125 g ai/ha Postemergence): 80
Plant response rating, Barnyardgrass [23]: 35
Plant response rating, Ducksalad [24]: 85
Plant response rating, Rice (rice (Oryza sativa)): 0
Plant response rating, Sedge, Umbrella [25]: 95
